The target of series [1] is T1, Mushroom tyrosinase (Agaricus bisporus, UniProt O42713+Q00024+C7FF04+C7FF05). The series can be described thus: Inhibition of mushroom tyrosinase using L-DOPA as substrate incubated for 30 mins by absorbance based microplate reader analysis. It is filed as protein assay.
Series [2] has as its target T1, Mushroom tyrosinase. The series can be described thus: Inhibition of mushroom tyrosinase using L-tyrosine as substrate incubated for 30 mins by absorbance based microplate reader analysis. It is filed as protein assay.
The subject of series [3] is B16-F10. Description: Cytotoxicity against mouse B16-F10 cells assessed as reduction in cell viability at <=20 uM incubated for 72 hrs by EZ-Cytox assay. Conditions: b16-f10, 72 h. It is filed as toxicity, cell-based.
Series [4] in a line: Cytotoxicity against human HaCaT cells assessed as cell viability at 20 uM incubated for 24 hrs by EZ-Cytox assay relative to control. The series is classed as toxicity, cell-based. Conditions: read-out: Activity.
A short description of series [5]: Antioxidant activity assessed as ABTS radical scavenging activity at 100 uM preincubated under dark condition for 2 mins and measured every 1 min for 10 mins by absorbance based microplate reader analysis relative to control. The series is classed as functional. As to conditions: time 12.0 min.
For series [6], the system named is B16-F10. The series can be described thus: Antimelanogenic activity against IBMX/[…] stimulated mouse B16-F10 cells assessed as reduction in intracellular melanin content preincubated for 1 hr followed by IBMX/[…] addition and measured after 72 hrs by microplate reader analysis. It is filed as functional, cell-based. Conditions: dose 5-20 µM, time 73.0 hrs.

The target in series [7] is T2, Mushroom tyrosinase (Agaricus bisporus) (UniProt O42713+Q00024+C7FF04+C7FF05). Description: Potency index, ratio of phenylthiourea IC50 to test compound IC50 for inhibition of mushroom tyrosinase. It is filed as protein assay.
Series [8] has as its target T3, Tyrosinase (Mus musculus) (UniProt P11344).
T3 sequence (whole entry): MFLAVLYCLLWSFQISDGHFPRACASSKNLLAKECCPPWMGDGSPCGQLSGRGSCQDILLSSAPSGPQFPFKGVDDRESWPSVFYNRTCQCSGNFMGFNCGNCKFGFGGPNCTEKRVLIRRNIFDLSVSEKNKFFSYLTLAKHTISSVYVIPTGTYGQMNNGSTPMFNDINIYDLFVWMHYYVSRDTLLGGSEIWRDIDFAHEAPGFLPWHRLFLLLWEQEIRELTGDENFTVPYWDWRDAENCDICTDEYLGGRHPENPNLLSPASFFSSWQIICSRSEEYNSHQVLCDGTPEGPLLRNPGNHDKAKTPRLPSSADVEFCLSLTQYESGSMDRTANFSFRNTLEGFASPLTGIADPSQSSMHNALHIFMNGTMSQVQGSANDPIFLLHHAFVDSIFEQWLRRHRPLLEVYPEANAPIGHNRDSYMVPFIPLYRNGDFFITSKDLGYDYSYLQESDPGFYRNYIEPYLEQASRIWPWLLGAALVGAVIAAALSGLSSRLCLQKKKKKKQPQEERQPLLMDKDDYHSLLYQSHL
Description: Inhibition of tyrosinase activity in IBMX/[…] stimulated mouse B16-F10 cells preincubated for 1 hr followed by IBMX/[…] addition and measured after 72 hrs by microplate reader assay. It is filed as cell-based. Conditions: dose 5-20 µM, time 73.0 hrs.

Series [9] relates to HaCaT. Description: Cytotoxicity against human HaCaT cells assessed as reduction in cell viability at 5 to 20 uM incubated for 24 hrs by EZ-Cytox assay. As to conditions: dose 5-20 µM. It is filed as toxicity, cell-based.
For series [10], the target named is T2, Mushroom tyrosinase (Agaricus bisporus). Description: Inhibition of mushroom tyrosinase using L-DOPA as substrate at 500 nM incubated for 30 mins by absorbance based microplate reader analysis relative to control. The series is classed as protein assay.
For series [11] the target is unchanged. The series can be described thus: Inhibition of mushroom tyrosinase using L-DOPA as substrate at 500 nM incubated for 30 mins in presence of CuSO4 by absorbance based microplate reader analysis relative to control. It is filed as protein assay.
Series [12] has the same target. Description: Mixed-type inhibition of mushroom tyrosinase using L-DOPA as substrate assessed as decrease in Vmax with increase in Km upto 0.2 uM using varying concentrations of substrate by Lineweaver-Burk plot analysis. It is filed as protein assay.
Series [13] deals with T1, Mushroom tyrosinase. Description: Binding affinity to mushroom tyrosinase using L-DOPA as substrate assessed as inhibition constant by Dixon plot analysis. The series is classed as protein assay.
Series [14] concerns the target T2, Mushroom tyrosinase (Agaricus bisporus). Description: Potency index, ratio of kojic acid IC50 to test compound IC50 for inhibition of mushroom tyrosinase using L-DOPA as substrate incubated for 30 mins by absorbance based microplate reader analysis. The series is classed as protein assay.
Series [15] has the same target. The series can be described thus: Competitive inhibition of mushroom tyrosinase using L-DOPA as substrate assessed as increase in Km with constant Vmax upto 0.2 uM using varying concentrations of substrate by Lineweaver-Burk plot analysis. The series is classed as protein assay.
The nature of series [16]: Cytotoxicity against human HaCaT cells assessed as cell viability at 5 uM incubated for 24 hrs by EZ-Cytox assay relative to control. It is filed as toxicity, cell-based. Conditions: read-out: Activity.
The nature of series [17]: Cytotoxicity against human HaCaT cells assessed as cell viability at 10 uM incubated for 24 hrs by EZ-Cytox assay relative to control. Conditions: read-out: Activity. It is filed as toxicity, cell-based.
Series [18] has as its target T2, Mushroom tyrosinase (Agaricus bisporus). Description: Potency index, ratio of phenylthiourea IC50 to test compound IC50 for inhibition of mushroom tyrosinase using L-tyrosine as substrate incubated for 30 mins by absorbance based microplate reader analysis. It is filed as protein assay.
For series [19] the target is unchanged. Description: Mixed-type inhibition of mushroom tyrosinase using L-DOPA as substrate assessed as decrease in Vmax with increase in Km upto 1.8 uM using varying concentrations of substrate by Lineweaver-Burk plot analysis. The series is classed as protein assay.

Broadly, the IC50 is the point on the concentration scale where inhibition reaches its midpoint. One may read the inhibition as how much of the control response was suppressed. Broadly, the Ki is the dissociation constant of the complex between target and ligand, obtained from inhibition or displacement.

Calls of active or inactive are those of the source. No cut-off for these calls is given here. Where only a bound is given, the exact number is not on record here.

Turning to `O=[N+]([O-])c1cccc2oc(S)nc12`, the values for the half-inhibitory concentration (IC50) in [1] and in series [2] were 23.84 µM and 14.8 µM, respectively. Further, the Activity entry was “Non-Toxic” in series [3] and 34% in [5]. Moreover, the viability at 24 h, 20 µM in series [4] is 94%.

For `Cc1ccc2[nH]c(=S)oc2c1`, the IC50 was 0.08 µM in series [1] and 0.13 µM in series [2]. For the same compound, the Activity result in series [3] was “Non-Toxic”; in [6] it was “Dose-Dependent Effect”; in series [9], “Non-Toxic”; in [5], 49%. In series [7], the Ratio IC50 was 2. Besides, the inhibition entry in series [8] is “Dose-Dependent Effect”; in series [10] it was over 92%; in series [11], 26%. In addition, the inhibition result in series [12] is “Active”. The inhibitory constant (Ki) in series [13] was 0.098 µM.

On to `Sc1nc2ccccc2o1`, for which the results for the 50% inhibitory concentration (IC50) in series [1] and in series [2] were 0.08 µM and 0.24 µM, respectively. The Ratio IC50 in series [14] was 440. In addition, the Activity result in series [3] was “Non-Toxic”; in series [9], “Non-Toxic”; in [5], 49%. Moreover, the inhibition in series [10] is over 92%; in [11], 26%. Also, the inhibition entry in series [15] is “Active”. Besides, the Ki in series [13] was 0.058 µM.

With `O=[N+]([O-])c1ccc2oc(=S)[nH]c2c1`, the half-inhibitory concentration (IC50) turned out to be 5.81 µM in [1] and 2.41 µM in [2]. In addition, the Activity entry in [3] was “Non-Toxic”; in [5] it was 49%. The viability at 24 h, 5 µM in series [16] was found to be 91%. Moreover, in series [17], the viability at 24 h, 10 µM stood at 91%. In addition, the viability at 24 h, 20 µM in series [4] is 84%.

For the compound `Cc1ccc2oc(=S)[nH]c2c1`, the 50% inhibitory concentration (IC50) in [1] was 0.09 µM; in series [2], 0.1 µM. In addition, in series [18], the Ratio IC50 was determined as 3. The values for the Activity result in [3], in series [9] and in series [5] were “Non-Toxic”, “Non-Toxic” and 49%, respectively. The inhibition was over 92% in series [10] and 26% in series [11]. Further, the inhibition entry in series [19] was “Active”. Besides, the inhibitory constant (Ki) in series [13] turned out to be 0.142 µM.

`Cc1cccc2oc(S)nc12`: the concentration for half-maximal inhibition (IC50) in series [1] stood at 2.15 µM; in series [2] it was 2.85 µM. In series [14], the Ratio IC50 is 16. For the same compound, the Activity entry in series [3] is “Non-Toxic”; in [6], “Dose-Dependent Effect”; in series [9], “Non-Toxic”; in series [5], 49%. In addition, in series [8], the inhibition result was “Dose-Dependent Effect”.

Take `S=c1[nH]c2ccc(Cl)cc2o1`: the IC50 worked out at 6.25 µM in series [1] and 2.02 µM in series [2]. Further, the results for the Activity result in [3], in [9] and in series [5] were “Non-Toxic”, “Non-Toxic” and 49%, respectively.

In the case of `O=[N+]([O-])c1ccc2nc(S)oc2c1`, the figures for the IC50 in series [1] and in series [2] were 13.76 µM and 12.25 µM, respectively. For the same compound, the Activity result in series [3] is “Non-Toxic”; in series [6], “Dose-Dependent Effect”; in [9] it was “Non-Toxic”; in series [5] it was 49%. The inhibition entry in series [8] was “Dose-Dependent Effect”.

`Cc1c(C)c2c(c(C)c1O)CCC(C)(C(=O)O)O2` (stereo not given): the Activity in series [5] was determined as 49%.
